These results are taken from patent publication US20010011063A1, “Substituted 2,4-diamino-1,3,5-triazines, processes for their preparation and their use as herbicides and plant growth regulators” (priority 1999, published 2001).

Assay type in all cases: in vivo
The test system of test [1] is Stellaria media, Lolium multiflorum, Amaranthus retroflexus, Sinapis alba, Avena sativa and Settaria viridis. In words: Pre-emergence effect on weeds (greenhouse pot test). The settings on record: application rate of 1 kg or less of active substance per hectare; visually scored after 3 to 4 weeks by comparison with untreated controls. The source says: Seeds or rhizome pieces of mono and dicotyledonous weed plants are placed in sandy loam soil in plastic pots and covered with soil. The compounds according to the invention which are formulated in the form of wettable powders or emulsion concentrates are then applied to the soil cover in the form of aqueous suspensions or emulsions at an application rate of 600 to 800 l of water/ha (converted), in various dosages.

The subject of test [2] is Sinapis alba, Echinochloa crus-galli, Lolium multiforum, Stellaria media, Cyperus iria, Amaranthus retroflexus, Settaria viridis and Avena sativa. Put plainly: Post-emergence effect on weeds (greenhouse pot test). The settings on record: application rate of 1 kg or less of active substance per hectare; treated at the three-leaf stage; scored visually after about 3 to 4 weeks vs untreated controls. As to the method: Seeds or rhizome pieces of mono- and dicotyledonous weeds are placed in sandy loam soil in plastic pots, covered with soil and grown in a greenhouse under good growth conditions. Three weeks after sowing, the test plants are treated at the three-leaf stage. The compounds according to the invention, formulated as wettable powders or emulsion concentrates, are sprayed, at various dosages, onto the green parts of the plants at an application rate of 600 to 800 l of water/ha (converted). After the test plants had remained in the greenhouse for about 3 to 4 weeks under optimum growth conditions, the effect of the preparations is scored visually by comparison with untreated controls. The agents according to the invention also have good herbicidal activity post-emergence against a broad spectrum of economically important weed grasses and broad-leaved weeds.

Test [3] concerns Cyperus monti, Echinochloa crus-galli and Sagitaria pygmaea. Put plainly: Action on harmful plants in rice (paddy rice conditions). Further: test concentration or dose not given here. As to conditions: poured into the dammed water, visual scoring about three weeks after application. The source says:
Transplanted and sown rice and also typical rice weeds (gramineous and broad-leaved) are cultivated in closed plastic pots in a greenhouse to the three-leaf stage (Echinochloa crus-galli 1.5-leaf) under paddy rice conditions (height of water: 2-3 cm). This is followed by treatment with the compounds according to the invention. For this purpose, the formulated active compounds are suspended, dissolved or emulsified in water and applied by pouring them into the dammed water around the test plants in different dosages.

As for `CC(C)(F)c1nc(N)nc(NC(CCc2ccccc2)CC2CC2(F)F)n1` (mixture of isomers) [Example 1-157], the “herbicidal activity pre-emergence against harmful plants” value (“herbicidal activity pre-emergence” for short) in test [1] is “very good herbicidal activity”. In test [2], the “herbicidal activity post-emergence against harmful plants” value (“herbicidal activity post-emergence” below) is given as “very good herbicidal activity”. Besides, the “herbicidal activity against harmful plants which are typical for rice crops” value (“herbicidal activity … for rice crops” below) in test [3] is “very good herbicidal activity”.

As to `CC(C)c1nc(N)nc(NC(CCc2ccccc2)CC2CC2(F)F)n1` (mixture of isomers) [Example 1-158], in test [1], the “herbicidal activity pre-emergence” value is listed as “very good herbicidal activity”. For the same molecule, the “herbicidal activity post-emergence” value in test [2] is on record as “very good herbicidal activity”. In test [3], the “herbicidal activity … for rice crops” value is “very good herbicidal activity”.

Regarding `CC(C)(F)c1nc(N)nc(NC(CCc2cccc(F)c2)C2CC2(Cl)Cl)n1` (mixture of isomers) [Example 2-6], in test [2], the “herbicidal activity post-emergence” value is “very good herbicidal activity”.

Turning to `CC(C)(F)c1nc(N)nc(NC(CCc2ccccc2)CC2CC2(F)F)n1` (mixture of isomers) [Example 2-157], in test [1], the “herbicidal activity pre-emergence” value is “very good herbicidal activity”. Further, in test [2], the “herbicidal activity post-emergence” value is on record as “very good herbicidal activity”. For the same molecule, the “herbicidal activity … for rice crops” value in test [3] is on record as “very good herbicidal activity”.

Regarding `CC(C)c1nc(N)nc(NC(CCc2ccccc2)CC2CC2(F)F)n1` (mixture of isomers) [Example 2-158], the “herbicidal activity pre-emergence” value in test [1] is recorded as “very good herbicidal activity”. Further, the “herbicidal activity post-emergence” value in test [2] is listed as “very good herbicidal activity”. In addition, the “herbicidal activity … for rice crops” value in test [3] is listed as “very good herbicidal activity”.

Take `CC(F)c1nc(N)nc(NC(CCCc2ccccc2)C2CC2)n1` (mixture of isomers) [Example 3-3]: in test [1], the “herbicidal activity pre-emergence” value is recorded as “very good herbicidal activity”. The “herbicidal activity post-emergence” value in test [2] was “very good herbicidal activity”. Further, in test [3], the “herbicidal activity … for rice crops” value is recorded as “very good herbicidal activity”.

As for `CC(F)c1nc(N)nc(NC(CCCc2ccccc2)C2CC2)n1` (mixture of isomers) [Example 4-3], in test [1], the “herbicidal activity pre-emergence” value was “very good herbicidal activity”. Besides, the “herbicidal activity post-emergence” value in test [2] is recorded as “very good herbicidal activity”. Further, the “herbicidal activity … for rice crops” value in test [3] is recorded as “very good herbicidal activity”.

Regarding `CC(C)c1nc(N)nc(N[C@@H](CCc2ccccc2)C2CCC2)n1` [Example 1-14], the “herbicidal activity pre-emergence” value in test [1] was “very good herbicidal activity”. Further, the “herbicidal activity post-emergence” value in test [2] is reported as “very good herbicidal activity”. Besides, in test [3], the “herbicidal activity … for rice crops” value is on record as “very good herbicidal activity”.

As to `CC(C)(F)c1nc(N)nc(N[C@@H](CCc2ccccc2)C2CCC2)n1` [Example 1-15], the “herbicidal activity pre-emergence” value in test [1] was “very good herbicidal activity”. Besides, the “herbicidal activity post-emergence” value in test [2] is on record as “very good herbicidal activity”. In addition, the “herbicidal activity … for rice crops” value in test [3] was “very good herbicidal activity”.

In the case of `Cc1nc(N)nc(N[C@@H](CCc2ccccc2)C2CCC2)n1` [Example 1-16], the “herbicidal activity pre-emergence” value in test [1] is “very good herbicidal activity”. The “herbicidal activity post-emergence” value in test [2] is “very good herbicidal activity”. Moreover, in test [3], the “herbicidal activity … for rice crops” value is on record as “very good herbicidal activity”.

Take `CC(C)c1nc(N)nc(N[C@@H](CCc2cccc(Cl)c2)C2CCC2)n1` [Example 1-23]: in test [1], the “herbicidal activity pre-emergence” value was “very good herbicidal activity”. Further, the “herbicidal activity post-emergence” value in test [2] was “very good herbicidal activity”. The “herbicidal activity … for rice crops” value in test [3] was “very good herbicidal activity”.

As to `CC(C)(F)c1nc(N)nc(N[C@@H](CCc2cccc(Cl)c2)C2CCC2)n1` [Example 1-24], in test [1], the “herbicidal activity pre-emergence” value is “very good herbicidal activity”. In addition, the “herbicidal activity post-emergence” value in test [2] is reported as “very good herbicidal activity”. Further, the “herbicidal activity … for rice crops” value in test [3] is reported as “very good herbicidal activity”.

In the case of `Cc1cccc(CC[C@H](Nc2nc(N)nc(C(C)C)n2)C2CCC2)c1` [Example 1-27], the “herbicidal activity pre-emergence” value in test [1] is reported as “very good herbicidal activity”. Further, the “herbicidal activity post-emergence” value in test [2] was “very good herbicidal activity”. For the same molecule, the “herbicidal activity … for rice crops” value in test [3] is on record as “very good herbicidal activity”.

As for `Cc1cccc(CC[C@H](Nc2nc(N)nc(C(C)(C)F)n2)C2CCC2)c1` [Example 1-28], in test [1], the “herbicidal activity pre-emergence” value is on record as “very good herbicidal activity”. Moreover, the “herbicidal activity post-emergence” value in test [2] is given as “very good herbicidal activity”. For the same molecule, the “herbicidal activity … for rice crops” value in test [3] is reported as “very good herbicidal activity”.

Turning to `CC(C)c1nc(N)nc(N[C@@H](CCc2ccccc2)CC2CC2)n1` [Example 1-144], the “herbicidal activity pre-emergence” value in test [1] was “very good herbicidal activity”. The “herbicidal activity post-emergence” value in test [2] is “very good herbicidal activity”. In addition, the “herbicidal activity … for rice crops” value in test [3] was “very good herbicidal activity”.

Consider `CC(C)(F)c1nc(N)nc(N[C@@H](CCc2ccccc2)CC2CC2)n1` [Example 1-145], for which the “herbicidal activity pre-emergence” value in test [1] is given as “very good herbicidal activity”. The “herbicidal activity post-emergence” value in test [2] is given as “very good herbicidal activity”. The “herbicidal activity … for rice crops” value in test [3] was “very good herbicidal activity”.

On to `CC(C)c1nc(N)nc(N[C@H](CCc2ccccc2)C2CCC2)n1` [Example 2-14], for which the “herbicidal activity pre-emergence” value in test [1] was “very good herbicidal activity”. The “herbicidal activity post-emergence” value in test [2] is “very good herbicidal activity”. Also, in test [3], the “herbicidal activity … for rice crops” value is given as “very good herbicidal activity”.

Take `CC(C)(F)c1nc(N)nc(N[C@H](CCc2ccccc2)C2CCC2)n1` [Example 2-15, 2-Amino-4-(1-fluoro-1-methylethyl)-6-[(1 R)-3-phenyl-1-cyclobutyl-1-propylamino]-1,3,5-triazine]: the “herbicidal activity pre-emergence” value in test [1] was “very good herbicidal activity”. In addition, the “herbicidal activity post-emergence” value in test [2] was “very good herbicidal activity”. Besides, the “herbicidal activity … for rice crops” value in test [3] is listed as “very good herbicidal activity”.

Consider `Cc1nc(N)nc(N[C@H](CCc2ccccc2)C2CCC2)n1` [Example 2-16], for which the “herbicidal activity pre-emergence” value in test [1] is “very good herbicidal activity”. The “herbicidal activity … for rice crops” value in test [3] was “very good herbicidal activity”.

`CC(C)c1nc(N)nc(N[C@H](CCc2cccc(Cl)c2)C2CCC2)n1` [Example 2-23]: in test [1], the “herbicidal activity pre-emergence” value was “very good herbicidal activity”. In addition, the “herbicidal activity post-emergence” value in test [2] is listed as “very good herbicidal activity”. The “herbicidal activity … for rice crops” value in test [3] is “very good herbicidal activity”.

For `CC(C)(F)c1nc(N)nc(N[C@H](CCc2cccc(Cl)c2)C2CCC2)n1` [Example 2-24], the “herbicidal activity pre-emergence” value in test [1] is recorded as “very good herbicidal activity”. Further, the “herbicidal activity post-emergence” value in test [2] was “very good herbicidal activity”. Also, the “herbicidal activity … for rice crops” value in test [3] is “very good herbicidal activity”.

As to `Cc1cccc(CC[C@@H](Nc2nc(N)nc(C(C)C)n2)C2CCC2)c1` [Example 2-27], the “herbicidal activity pre-emergence” value in test [1] is “very good herbicidal activity”. The “herbicidal activity post-emergence” value in test [2] is on record as “very good herbicidal activity”. Also, the “herbicidal activity … for rice crops” value in test [3] is “very good herbicidal activity”.

As for `Cc1cccc(CC[C@@H](Nc2nc(N)nc(C(C)(C)F)n2)C2CCC2)c1` [Example 2-28], the “herbicidal activity pre-emergence” value in test [1] is reported as “very good herbicidal activity”. In addition, the “herbicidal activity post-emergence” value in test [2] was “very good herbicidal activity”. Also, in test [3], the “herbicidal activity … for rice crops” value is reported as “very good herbicidal activity”.

In the case of `CC(C)c1nc(N)nc(N[C@H](CCc2ccccc2)CC2CC2)n1` [Example 2-144], the “herbicidal activity pre-emergence” value in test [1] is “very good herbicidal activity”. Further, the “herbicidal activity post-emergence” value in test [2] is “very good herbicidal activity”. The “herbicidal activity … for rice crops” value in test [3] is given as “very good herbicidal activity”.

Consider `CC(C)(F)c1nc(N)nc(N[C@H](CCc2ccccc2)CC2CC2)n1` [Example 2-145], for which the “herbicidal activity pre-emergence” value in test [1] was “very good herbicidal activity”. Further, the “herbicidal activity post-emergence” value in test [2] is “very good herbicidal activity”. In test [3], the “herbicidal activity … for rice crops” value is recorded as “very good herbicidal activity”.
